Reference: article PMC9011347, “Small-Molecule Inhibitors Targeting Lipolysis in Human Adipocytes” (Journal of the American Chemical Society, 2022)

Experiments:
Type in all cases: biochemical
[1] = biological target: T1, DDHD domain-containing protein 2 (DDHD2) (Homo sapiens, UniProt O94830); experiment: Off-target lipid hydrolase assay, Expi293 lysates, p-NPV substrate; conditions: NG-497 100 µM, substrate pNPV
T1 construct: made in house; host or cells: Expi293 cells, lysate
Protocol: (§1) Fig. S3: Investigation of off-target effects of NG-497 on structurally and functionally related lipid hydrolases. (a) PNPLA1-dependent formation of acylceramides was monitored in a cell-based assay in HEK293T cells. Experiments were performed in the presence or absence of NG-497 (40 µM) and the non-selective lipase inhibitor Orlistat (40 µM). Orlistat, but not NG-497, inhibited PNPLA1/CGI-58-dependent ω-O-acylceramide formation. (b-h) Enzymes were overexpressed in Expi293 cells and cell lysates were used as source of enzymatic activity. Cell lysates were incubated with the indicated substrates 1-oleoyl phosphatidylcholine (LPC), di-oleoyl phosphatidic acid (PA), di-octanoyl phosphatidylglycerol (PG), or para-nitrophenylvalerate (pNPV). Experiments were performed in the presence or absence of NG-497 (100 µM) and the formation of reaction products was monitored. Cell lysates of LacZ-transfected cells were used to detect basal cellular activity. As positive controls, enzymes were inactivated with lipase inhibitors Orlistat (40 µM), R-BEL (10 µM), KLH-45 (20 nM), HSLi (10 µM), or PMSF (10µM).
(§2) Data were calculated relative to the basal activity detected in LacZ-transfected controls. (i) Activity of purified human pancreatic lipase in the presence or absence of NG-497 (100 µM) and Orlistat (20 µM) using radiolabeled triolein as substrate. (j) Inhibition of LPL and HL by NG-497 (100 µM) was investigated in human post-heparin plasma using radiolabeled triolein as substrate.
(§3) LPL activity was inhibited using an anti-LPL antibody. All data are presented as mean ± S.D. Statistical significance was determined via ANOVA followed by Bonferroni post hoc test ( ***, p < 0.001).
(§4) (1 picture or pasted object on this page, not shown here)
(§5) Co-immunoprecipitation. […]
(§6) Analysis of toxicity in HepG2 hepatocytes. […] Release of LDH into the medium was analyzed using the Cytotoxicity Detection Kit PLUS (LDH) (MilliporeSigma) according to the manufacturer’s instructions. Cytotoxicity was calculated as relative LDH release as compared to fully lysed cells. […]

HSL = HSL (Homo sapiens, UniProt Q05469); experiment: as above; conditions: NG-497 100 µM, substrate pNPV
Protocol: as §1, §2, §3, §4, §5, §6

[2] = biological target: T2, carboxylesterase 2 (CES2) (Homo sapiens, UniProt O00748); experiment: as above; conditions: NG-497 100 µM, substrate pNPV
T2 construct: made in house; host or cells: Expi293 cells, lysate
Protocol: as §1, §2, §3, §4, §5, §6

human pancreatic lipase = biological target: T3, human pancreatic lipase (Homo sapiens, UniProt P16233); experiment: Activity of purified pancreatic lipase, radiolabeled triolein; conditions: NG-497 100 µM
T3 construct: purchased MilliporeSigma SRE0028
Protocol: Fig. S3: Investigation of off-target effects of NG-497 on structurally and functionally related lipid hydrolases. (a) PNPLA1-dependent formation of acylceramides was monitored in a cell-based assay in HEK293T cells. Experiments were performed in the presence or absence of NG-497 (40 µM) and the non-selective lipase inhibitor Orlistat (40 µM). Orlistat, but not NG-497, inhibited PNPLA1/CGI-58-dependent ω-O-acylceramide formation. (b-h) Enzymes were overexpressed in Expi293 cells and cell lysates were used as source of enzymatic activity. […] Experiments were performed in the presence or absence of NG-497 (100 µM) and the formation of reaction products was monitored. […]
Data were calculated relative to the basal activity detected in LacZ-transfected controls. […]
LPL activity was inhibited using an anti-LPL antibody. All data are presented as mean ± S.D. Statistical significance was determined via ANOVA followed by Bonferroni post hoc test ( ***, p < 0.001). […]
Released free fatty acids were quantified via NEFA C kit (Fujifilm Wako Chemicals, Neuss, Germany) and release of p-nitrophenol was measured at 405 nm. […] Cellular ω-O-acylceramide formation was monitored using [1-14C]linoleic acid as tracer. […] The activity of purified human pancreatic lipase (MilliporeSigma #SRE0028) was determined as previously described7 in the presence or absence of NG-497 (100µM) or Orlistat (20 µM). […]

T1 sequence (O94830 whole entry, the tested form may be a part): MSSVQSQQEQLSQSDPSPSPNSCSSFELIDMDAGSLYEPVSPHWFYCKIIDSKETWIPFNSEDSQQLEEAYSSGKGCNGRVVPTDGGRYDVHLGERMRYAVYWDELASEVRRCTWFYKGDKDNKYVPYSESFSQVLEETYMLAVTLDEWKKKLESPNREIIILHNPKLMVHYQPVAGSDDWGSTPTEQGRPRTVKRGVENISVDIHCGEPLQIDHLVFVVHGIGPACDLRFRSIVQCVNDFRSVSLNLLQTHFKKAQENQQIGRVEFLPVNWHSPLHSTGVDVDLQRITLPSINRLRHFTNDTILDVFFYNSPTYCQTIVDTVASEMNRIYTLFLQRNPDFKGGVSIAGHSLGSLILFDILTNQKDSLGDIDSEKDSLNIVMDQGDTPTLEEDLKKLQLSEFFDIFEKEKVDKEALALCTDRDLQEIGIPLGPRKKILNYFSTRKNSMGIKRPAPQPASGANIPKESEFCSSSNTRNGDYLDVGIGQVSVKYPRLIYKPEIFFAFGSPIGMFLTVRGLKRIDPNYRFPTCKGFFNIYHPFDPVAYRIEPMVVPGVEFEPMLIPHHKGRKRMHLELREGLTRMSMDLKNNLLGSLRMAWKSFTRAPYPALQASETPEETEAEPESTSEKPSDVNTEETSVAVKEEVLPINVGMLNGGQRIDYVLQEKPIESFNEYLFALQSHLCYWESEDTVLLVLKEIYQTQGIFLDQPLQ
T3 sequence (P16233 17-465): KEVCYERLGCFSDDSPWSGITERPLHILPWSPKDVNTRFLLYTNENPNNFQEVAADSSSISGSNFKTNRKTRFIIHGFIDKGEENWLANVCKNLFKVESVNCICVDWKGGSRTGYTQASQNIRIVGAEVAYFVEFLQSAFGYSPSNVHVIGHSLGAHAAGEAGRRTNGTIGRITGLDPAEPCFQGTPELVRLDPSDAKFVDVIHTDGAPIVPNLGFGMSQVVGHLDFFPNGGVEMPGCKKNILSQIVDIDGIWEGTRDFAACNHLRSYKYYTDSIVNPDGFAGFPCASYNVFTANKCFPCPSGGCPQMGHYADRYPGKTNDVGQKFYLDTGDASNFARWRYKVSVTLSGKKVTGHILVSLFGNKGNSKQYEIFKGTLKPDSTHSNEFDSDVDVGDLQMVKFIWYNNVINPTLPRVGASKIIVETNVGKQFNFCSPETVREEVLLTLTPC
T2 sequence (O00748 27-559): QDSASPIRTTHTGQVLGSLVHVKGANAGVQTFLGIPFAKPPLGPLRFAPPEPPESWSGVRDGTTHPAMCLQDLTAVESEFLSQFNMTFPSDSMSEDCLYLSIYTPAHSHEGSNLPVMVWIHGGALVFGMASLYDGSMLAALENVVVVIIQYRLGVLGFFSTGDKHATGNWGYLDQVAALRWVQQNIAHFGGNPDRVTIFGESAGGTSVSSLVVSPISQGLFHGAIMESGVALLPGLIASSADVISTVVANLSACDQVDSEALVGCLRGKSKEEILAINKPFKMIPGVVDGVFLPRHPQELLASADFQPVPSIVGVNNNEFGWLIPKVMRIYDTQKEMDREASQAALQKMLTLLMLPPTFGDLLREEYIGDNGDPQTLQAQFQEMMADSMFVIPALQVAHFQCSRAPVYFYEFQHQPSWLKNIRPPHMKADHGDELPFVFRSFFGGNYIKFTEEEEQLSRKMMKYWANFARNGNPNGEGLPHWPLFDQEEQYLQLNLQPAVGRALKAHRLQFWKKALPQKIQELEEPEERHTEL
Sequence of HSL (Q05469 302-1076 limits assumed): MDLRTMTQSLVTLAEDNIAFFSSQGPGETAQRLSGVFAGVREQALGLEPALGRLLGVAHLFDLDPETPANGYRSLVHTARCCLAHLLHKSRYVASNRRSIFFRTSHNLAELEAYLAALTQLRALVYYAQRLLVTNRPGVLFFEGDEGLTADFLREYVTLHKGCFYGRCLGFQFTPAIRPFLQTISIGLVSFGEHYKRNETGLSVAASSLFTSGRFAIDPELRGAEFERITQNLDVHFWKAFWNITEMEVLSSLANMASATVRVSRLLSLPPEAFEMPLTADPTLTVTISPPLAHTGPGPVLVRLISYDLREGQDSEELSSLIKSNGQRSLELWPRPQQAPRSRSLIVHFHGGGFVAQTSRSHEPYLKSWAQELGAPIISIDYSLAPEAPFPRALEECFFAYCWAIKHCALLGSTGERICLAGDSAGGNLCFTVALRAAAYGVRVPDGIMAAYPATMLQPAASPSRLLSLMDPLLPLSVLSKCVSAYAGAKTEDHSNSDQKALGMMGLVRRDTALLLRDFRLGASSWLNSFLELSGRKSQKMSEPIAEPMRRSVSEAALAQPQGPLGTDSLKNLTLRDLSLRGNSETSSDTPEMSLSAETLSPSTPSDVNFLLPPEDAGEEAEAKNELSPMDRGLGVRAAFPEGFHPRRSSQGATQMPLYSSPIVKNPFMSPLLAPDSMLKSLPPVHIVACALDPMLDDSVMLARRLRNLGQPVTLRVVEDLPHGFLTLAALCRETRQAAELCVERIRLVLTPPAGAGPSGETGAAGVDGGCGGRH

CCOc1ccc(-c2cc(OC)cc(C(=O)OC(C)C)n2)cc1 [NG-497]
did not observe inhibition: inhibition of DDHD2 [1] | inhibition of HSL (HSL) | inhibition of CES2 [2] | inhibition of pancreatic lipase (human pancreatic lipase)
